This note sets out measurements from patent US20220249525A1, “Fatty Acid Compounds for Prevention and Treatment of Neurodegenerative Disorders” (T OMEGA AS, priority 2019, published 2022).

One assay concerns HuH-7 cells. The experiment in a line: WST-1 cell viability assay in HuH-7 cells. It counts as cell-based. The method, then:
The fatty acids (FAs) TTA, tr-TTA, N-TTA, tr-N-TTA and (PA) were complexed with FBS following the same procedure, differing only in final stock concentration, due to variation in solubility. Approximately 0.07 g of FA was weighed in a 10 ml sterile serum tube (BD Vacutainer®, catalog no. 368430) and dissolved in sterile filtrated 0.1 M sodium hydroxide (NaOH) of a volume giving 25 mM FA, controls without FA were made, containing only NaOH and FBS. A syringe (Sterican®, catalog no. 4657577) was pierced through the rubber cap of the serum tube, and the tube was placed in an 80° C. water bath until the FAs were dissolved. Each FA-solution was then diluted in inactivated FBS to stock concentration 1 mM (N-TTA, tr-N-TTA), and 2 mM by adding the FA to a volume of 100% FBS after heating the FBS to 45° C. in a water bath. The transfer of FA to FBS had to be executed controlled and swiftly to avoid the formation of precipitates. If any precipitates in the solution were visible, the FA and a new volume of FBS were reheated, and the procedure performed again. Following successful complexation, the stock solutions were stored at −20° C. in 1 ml aliquots (CryoPure tube, Sarstedt AG & Co, Nümbrecht, Germany).
The WST-1 cell proliferation assay was performed using the kit from Roche (table 4.2.) and its accompanying procedure (version 16, February 2011) (134). The number of cells seeded to each well in the 96-well plates (Corning Inc., catalog no. 353072) varied depending on the treatment time and cell type (table 3.).
Cell suspension and medium were then transferred to each well in a volume of 100 μl in total. Subsequently, the plates were incubated for 24 hours to make the cells settle. The next day, 100 μl with FA complexed with FBS or diluted in DMSO was added to row A or B in the 96-well plate to give a defined concentration. The solution was then mixed with a pipette, and 100 μl of the medium with FA was transferred to the next well in the same column, mixed by pipetting up and down at least five times before 100 μl was transferred again to the next well in the column. This procedure was repeated until the second last, or last well in each column was reached, making a series of two-fold dilution of the FAs in the cell medium. Two parallels were performed for every treatment per run. After the addition of FAs, the plates were incubated for 24-96 hours depending on the length of the treatment.
Following the FA-treatment, the cells were studied under a microscope to ensure that visual observations matched the measured absorbance and cell activity in the assay. Subsequently, 10 μl WST-1 reagent was added to each well, and the plates were incubated for 3 hours. Due to high activity in the HuH-7 cell line, the WST-1 reagent was diluted 1:1 with PBS. Before the measurement of absorbance, the plates were placed on a shaker for 1 minute ensuring thoroughly mixing of the wells. The plates were then put straight into the spectrophotometer (SpectraMax Plus 384 Microplate Reader, Molecular Devices Corporation, San Jose, Calif., USA) to perform the measurements. The accompanying software was used (SoftMax Pro, Molecular Devices Corporation, San Jose, Calif., USA) to obtain the results. The absorbance of the samples was measured at 450 nm, and the reference wavelength was set to 650 nm. For each well, the measured absorption at 650 nm was subtracted from the absorption at 450 nm. The measured absorbance for the treated cells was then compared to the controls (blank) containing only cells and growth medium.
(Tetrazolium assays rely on reduction of a dye to a coloured formazan, in cell work by metabolically active cells.)

In assay [1] the test system is HeLaNRF1/c4 reporter cells. The experiment in a line: Gene expression (qPCR) in HeLaNRF1/c4 reporter cells. In kind it is cell-based. The note with it: long-term treatment. The method, then:
The HeLaNRF1/c4 reporter cells were employed to investigate effects of the modified fatty acids on NRF1-regulated mitochondrial biogenesis. The cells (250,000) were seeded in T75 flasks and incubated for 3 hours to allow attachment. The compounds were dissolved in DMSO and diluted in culture medium to provide the final concentration. DMSO at a concentration equivalent to the highest compound concentration was added to control cultures. Resveratrol and AICAR were used as positive controls. Resveratrol has not previously been tested in this reporter model, but we found it relevant to include it for purposes of experimental and mechanistic comparisons. After 3 days of treatment the media was replaced with fresh media containing the corresponding compound. On day 5, the cells were harvested and the cultures split into three fractions: One fraction was used for detection of mitoGFP expression by flow cytometry, to assess effects on NRF-1 regulated mitochondrial biogenesis. Flow cytometry analysis was performed as previously described. Another fraction was used for extraction of RNA and subsequent gene expression analysis using quantitative PCR (see below). The last fraction was employed to investigate effects on mitochondrial respiratory function by extracellular flux analysis (described above). The experiment was replicated three times.
Total RNA was extracted from harvested cells (RNAeasy kit Qiagen, Hilden, Germany). The RNA content was quantified on Nanodrop 1000 Spectrophotometer (Thermo Scientific). From 1 μg total RNA, cDNA was synthesized using High-Capacity Reverse Transcription Kit (Applied Biosystems, Carlsbad, Calif., US). Gene quantification was done using TaqMan probes for gene expression assays (Applied Biosystems). Probes used were: PGC1α (PPARG coactivator 1α), Hs00173304_m1; HIF1α (hypoxia inducible factor 1α), Hs00153153_m1; PDK1 (pyruvate dehydrogenase kinase 1), Hs01561847_m1; PDK4, (pyruvate dehydrogenase kinase 4), Hs01037712_m1; SIRT4 (sirtuin 4) Hs01015516_g1; ACOX1 (acyl-CoA oxidase 1) Hs01074241_m1; as reference genes, we used; Eukaryotic 18S rRNA Hs99999901_s1; actin beta Hs99999903_m1. Fold change was calculated as geometric mean of ΔΔCt of the two reference genes.
A general note: Real-time PCR tracks product formation cycle by cycle.

Take `CCCCCCCCCCCCCCNCC(=O)O` [N-TTA, N-tetradecylglycine]: the “WST-1 activity compared to untreated cells” value in the assay on HuH-7 cells (2 days, 16 μM, complexed with FBS) is listed as 116%. Besides, the “WST-1 activity compared to no treatment” value with HuH-7 cells (2 days, 125-250 μM) was 50-60%. The WST-1 activity entry in the assay on HuH-7 cells (4 days, 1000 μM) was “The same result was true”. Moreover, the PDK4 expression entry in assay [1] is recorded as “significantly increased”. Also, in assay [1] (vs control), the PGC1α expression result is on record as “significant increase”.
